Measurements as given in patent publication US20230416228A1 (Forkhead Biotherapeutics, Inc., priority 2020, published 2023).
Counter-ions that a name gives are not always drawn.

Target: T1, human FOXO1 (constitutively active form Thr24Ala, Ser256Ala, Ser319Ala) (Homo sapiens, UniProt Q12778, S256A/S319A/T24A)
T1 construct: expressed in transfected cells; host or cells: HEK293 cells transfected with pcDNA3.1 plasmid
Experiment: FOXO1 inhibitor activity assay: cell-based transcriptional (luciferase) reporter assay in HEK293 cells
Conditions: HEK293 cells transfected with insulin response element firefly luciferase reporter, FOXO1 and Renilla luciferase; 10-point dose response 50 μM to 2.5 nM; 24 hours
Procedure: The inhibitory activities of compounds on FOXO1 were determined by a cell-based transcriptional reporter assay. HEK293 cells were plated onto either 384-well poly-D-lysine coated plates (at 7500 cells per well) or 96-well plates (at 20000 cells per well) in low glucose Eagle's Minimum Essential Medium (EMEM) containing 1% fetal bovine serum, and incubated overnight at 37° C. and 5% CO2. […] Duplicate wells were included for each treatment condition. Cells were incubated for 24 hours at 37° C. and 5% CO2. Luciferase activities in each well were measured using Dual-Glog Luciferase Assay System (Promega) according to manufacturer's protocol and an Envision plate reader suitable for luminescence detection. Firefly luciferase activity was divided by Renilla luciferase activity to calculate a ratio for each well. The ratio in wells containing cells transfected with all 3 plasmids listed above and receiving only DMSO without compound addition was set to 100%. The ratio in wells containing cells transfected with plasmid (1), plasmid (3), and pcDNA3.1 containing the open reading frame of red fluorescent protein (instead of human FOXO1) and treated with DMSO was set to 0%. The ratio in each well receiving compound treatment was normalized and expressed as a percentage. Data were fit by 4-parameter logistic regression to determine IC50 and maximal inhibition values. Each compound was tested in a minimum of 2 independent experiments.

T1 sequence (Q12778 whole entry T24A/S256A/S319A): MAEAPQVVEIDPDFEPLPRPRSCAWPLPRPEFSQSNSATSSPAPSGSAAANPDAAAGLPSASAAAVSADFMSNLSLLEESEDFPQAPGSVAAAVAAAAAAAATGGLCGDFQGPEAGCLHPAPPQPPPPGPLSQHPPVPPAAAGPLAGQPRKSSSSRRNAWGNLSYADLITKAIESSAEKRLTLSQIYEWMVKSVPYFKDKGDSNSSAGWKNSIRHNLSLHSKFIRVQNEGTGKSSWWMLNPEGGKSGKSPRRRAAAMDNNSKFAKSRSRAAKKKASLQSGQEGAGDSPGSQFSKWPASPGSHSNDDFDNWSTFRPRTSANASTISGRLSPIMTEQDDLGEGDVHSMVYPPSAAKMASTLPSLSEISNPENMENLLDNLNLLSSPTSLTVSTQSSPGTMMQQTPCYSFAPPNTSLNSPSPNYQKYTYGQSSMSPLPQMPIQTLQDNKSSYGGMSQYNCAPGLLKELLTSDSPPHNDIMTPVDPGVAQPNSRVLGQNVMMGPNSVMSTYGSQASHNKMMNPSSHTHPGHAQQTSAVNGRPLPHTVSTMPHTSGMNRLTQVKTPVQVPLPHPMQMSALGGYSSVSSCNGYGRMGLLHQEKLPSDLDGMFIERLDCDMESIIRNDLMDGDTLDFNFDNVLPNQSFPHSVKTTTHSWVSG

Q: CC(=O)N1CCN(c2ccc(C(=O)Nc3cc(-c4nc5ccccc5[nH]4)n(C)n3)cn2)CC1 [A-231, 6-(4-acetylpiperazin-1-yl)-N-[5-(1H-benzimidazol-2-yl)-1-methyl-pyrazol-3-yl]pyridine-3-carboxamide] was tested. Which IC50 did it give?
A: < 0.1 µM

Q: Cc1ccc2[nH]c(-c3cc(NC(=O)c4ccc(OCCO)c(Cl)c4)n[nH]3)nc2c1 [Compound A-115, 3-chloro-4-(2-hydroxyethoxy)-N-[5-(5-methyl-1H-benzimidazol-2-yl)-1H-pyrazol-3-yl]benzamide] was tested. Which IC50 did it give?
A: < 0.1 µM

Q: How did the IC50 turn out when CN1CCN(c2cnc(C(=O)Nc3cc(-c4nc5ccccc5[nH]4)[nH]n3)cn2)CC1 [Compound A-179, N-[5-(1H-benzimidazol-2-yl)-1H-pyrazol-3-yl]-5-(4-methylpiperazin-1-yl)pyrazine-2-carboxamide] was run?
A: 0.1 to 0.3 µM

Q: COc1ccc(C(=O)Nc2n[nH]c(-c3nc4ccccc4[nH]3)c2Cl)cc1Cl [Compound A-74, N-[5-(1H-benzimidazol-2-yl)-4-chloro-1H-pyrazol-3-yl]-3-chloro-4-methoxy-benzamide] was tested. Which IC50 did it give?
A: > 1 µM

Q: How did the IC50 turn out when [2H]C([2H])([2H])OCCN1CCN(c2ccc(C(=O)Nc3cc(-c4nc5ccccc5[nH]4)n(C)n3)cn2)CC1 [Compound A-260, N-[5-(1H-benzimidazol-2-yl)-1-methyl-pyrazol-3-yl]-6-[4-[2-(trideuterio-methoxy)ethyl]piperazin-1-yl]pyridine-3-carboxamide] was run?
A: 0.1 to 0.3 µM

Q: How did the IC50 turn out when COCCn1nc(NC(=O)c2ccc(N3CCN(C)CC3)cc2)cc1-c1nc2ccccc2[nH]1 [Compound A-185, N-[5-(1H-benzimidazol-2-yl)-1-(2-methoxyethyl)pyrazol-3-yl]-4-(4-methylpiperazin-1-yl)benzamide] was run?
A: > 1 µM

Q: How did the IC50 turn out when Cn1nc(NC(=O)c2ccc(N3CCOCC3)nc2)cc1-c1nc2cccc(F)c2[nH]1 [Compound A-135, N-[5-(4-fluoro-1H-benzimidazol-2-yl)-1-methyl-pyrazol-3-yl]-6-morpholino-pyridine-3-carboxamide] was run?
A: 0.1 to 0.3 µM

Q: COc1cc(F)c2[nH]c(-c3cc(NC(=O)c4ccc(N5CCN(CCO)CC5)cc4)nn3C)nc2c1 [Compound A-222, N-[5-(7-fluoro-5-methoxy-1H-benzimidazol-2-yl)-1-methyl-pyrazol-3-yl]-4-[4-(2-hydroxyethyl)piperazin-1-yl]benzamide] was tested. Which IC50 did it give?
A: < 0.1 µM

Q: Which IC50 does the source give for CN1CCN(c2ccc(C(=O)Nc3cc(-c4nc5ccccc5[nH]4)n(CCO)n3)cc2)CC1 [Compound A-201, N-[5-(1H-benzimidazol-2-yl)-1-(2-hydroxyethyl)pyrazol-3-yl]-4-(4-methylpiperazin-1-yl)benzamide] here?
A: 0.3 to 1 µM

Q: COc1ccc(C(=O)Nc2cc(-c3cn4ccc(C)cc4n3)[nH]n2)cc1Cl [Compound A-163, 3-chloro-4-methoxy-N-[5-(7-methylimidazo[1,2-a]pyridin-2-yl)-1H-pyrazol-3-yl]benzamide] was tested. Which IC50 did it give?
A: 0.3 to 1 µM

Q: How did the IC50 turn out when COc1ccc(C(=O)Nc2cc(-c3nc4cc(OCCO)ccc4[nH]3)[nH]n2)cc1Cl [Compound A-277, 3-chloro-N-[5-[5-(2-hydroxyethoxy)-1H-benzimidazol-2-yl]-1H-pyrazol-3-yl]-4-methoxy-benzamide] was run?
A: < 0.1 µM

Q: How did the IC50 turn out when COCCNc1ccc(C(=O)Nc2cc(-c3nc4ccccc4[nH]3)[nH]n2)cc1Cl [Compound A-39, N-[5-(1H-benzimidazol-2-yl)-1H-pyrazol-3-yl]-3-chloro-4-(2-methoxyethylamino)benzamide] was run?
A: < 0.1 µM

Q: How did the IC50 turn out when O=C(Nc1cc(-c2nc3ccccc3[nH]2)[nH]n1)c1ccc(N2CCN(CCO)CC2)cc1 [Compound A-181] was run?
A: < 0.1 µM

Q: Cn1nc(NC(=O)c2ccc(N3CCC(N4CCOCC4)CC3)nc2)cc1-c1nc2ccccc2[nH]1 [Compound A-208, N-[5-(1H-benzimidazol-2-yl)-1-methyl-pyrazol-3-yl]-6-(4-morpholino-1-piperidyl)pyridine-3-carboxamide] was tested. Which IC50 did it give?
A: 0.1 to 0.3 µM

Q: Which IC50 does the source give for Cn1nc(NC(=O)c2ccc(N3CCN(C4COC4)CC3)cc2)cc1-c1nc2ccccc2[nH]1 [Compound A-215, N-[5-(1H-benzimidazol-2-yl)-1-methyl-pyrazol-3-yl]-4-[4-(oxetan-3-yl)piperazin-1-yl]benzamide] here?
A: 0.1 to 0.3 µM

Q: CN1CCN(c2ccc(C(=O)Nc3nc(-c4nc5ccccc5[nH]4)n(C)n3)cc2)CC1 [Compound A-241, N-[5-(1H-benzimidazol-2-yl)-1-methyl-1,2,4-triazol-3-yl]-4-(4-methylpiperazin-1-yl)benzamide] was tested. Which IC50 did it give?
A: 0.3 to 1 µM

Q: Which IC50 does the source give for Cc1nc(N2CCOC(CO)C2)ccc1C(=O)Nc1cc(-c2nc3ccccc3[nH]2)n(C)n1 (centres unmarked) [Compound A-262, N-[5-(1H-benzimidazol-2-yl)-1-methyl-pyrazol-3-yl]-6-[2-(hydroxy-methyl)morpholin-4-yl]-2-methyl-pyridine-3-carboxamide] here?
A: 0.1 to 0.3 µM

Q: Which IC50 does the source give for O=C(Nc1cc(-c2nc3cc(C(F)(F)F)ccc3[nH]2)[nH]n1)c1ccc(N2CCOCC2)nc1 [Compound A-102, 6-morpholino-N-[5-[5-(trifluoromethyl)-1H-benzimidazol-2-yl]-1H-pyrazol-3-yl]pyridine-3-carboxamide] here?
A: > 1 µM

Q: How did the IC50 turn out when Cn1nc(NC(=O)c2ccc(OCCO)c(C(F)(F)F)c2)cc1-c1nc2ccccc2[nH]1 [Compound A-223, N-[5-(1H-benzimidazol-2-yl)-1-methyl-pyrazol-3-yl]-4-(2-hydroxyethoxy)-3-(trifluoromethyl)benzamide] was run?
A: < 0.1 µM

Q: How did the IC50 turn out when O=C(Nc1cc(-c2nc3ccccc3[nH]2)[nH]n1)c1ccc(N2CCNCC2)nc1 [Compound A-218, N-[5-(1H-benzimidazol-2-yl)-1H-pyrazol-3-yl]-6-piperazin-1-yl-pyridine-3-carboxamide] was run?
A: 0.1 to 0.3 µM

Q: O=C(O)CCN1CCN(c2ccc(C(=O)Nc3cc(-c4nc5ccccc5[nH]4)[nH]n3)cc2)CC1 [Compound A-197, 3-[4-[4-[[5-(1H-benzimidazol-2-yl)-1H-pyrazol-3-yl]carbamoyl]phenyl]-piperazin-1-yl]propanoic acid hydrochloride] was tested. Which IC50 did it give?
A: > 1 µM

Q: Which IC50 does the source give for COc1ccc(C(=O)Nc2cc(-c3nc4ccccc4[nH]3)no2)cc1Cl [Compound A-30, N-[3-(1H-benzimidazol-2-yl)isoxazol-5-yl]-3-chloro-4-methoxy-benzamide] here?
A: > 1 µM

Q: Cn1nc(NC(=O)c2ccc(N3CCC(O)C3)nc2)cc1-c1nc2ccccc2[nH]1 (stereo in doubt) [Compound A-227, N-[5-(1H-benzimidazol-2-yl)-1-methyl-pyrazol-3-yl]-6-[(3R)-3-hydroxy-pyrrolidin-1-yl]pyridine-3-carboxamide] was tested. Which IC50 did it give?
A: 0.3 to 1 µM

Q: With COCCOc1ccc(C(=O)Nc2cc(-c3nc4ccccc4[nH]3)[nH]n2)cc1OC [Compound A-75, N-[5-(1H-benzimidazol-2-yl)-1H-pyrazol-3-yl]-3-methoxy-4-(2-methoxyethoxy)benzamide] as the molecule, how does the IC50 read?
A: < 0.1 µM

Q: How did the IC50 turn out when O=C(Nc1cc(-c2nc3ccccc3[nH]2)[nH]n1)c1ccc(N2CCCC(CO)C2)nc1 (centres unmarked) [Compound A-68, N-[5-(1H-benzimidazol-2-yl)-1H-pyrazol-3-yl]-6-[3-(hydroxymethyl)-1-piperidyl]pyridine-3-carboxamide] was run?
A: < 0.1 µM

Q: How did the IC50 turn out when COCCOc1ccc(C(=O)Nc2cc(-c3nc4ccccc4[nH]3)[nH]n2)cc1C#N [Compound A-129, N-[5-(1H-benzimidazol-2-yl)-1H-pyrazol-3-yl]-3-cyano-4-(2-methoxyethoxy)benzamide] was run?
A: 0.1 to 0.3 µM

Q: For O=C(Nc1cc(-c2nc3ccccc3[nH]2)[nH]n1)c1ccc(OCCO)c(Cl)c1 [Compound A-50, N-[5-(1H-benzimidazol-2-yl)-1H-pyrazol-3-yl]-3-chloro-4-(2-hydroxy-ethoxy)benzamide], which IC50 is on record?
A: < 0.1 µM

Q: How did the IC50 turn out when C[C@H]1CN(c2ccc(C(=O)Nc3cc(-c4nc5ccccc5[nH]4)n(C)n3)cn2)CCN1 [Compound A-245, N-[5-(1H-benzimidazol-2-yl)-1-methyl-pyrazol-3-yl]-6-[(3S)-3-methylpiperazin-1-yl]pyridine-3-carboxamide] was run?
A: < 0.1 µM

Q: For COc1ccc(C(=O)Nc2cc(-c3nc4ccc(OC)c(F)c4[nH]3)[nH]n2)cc1Cl [Compound A-106, 3-chloro-N-[5-(7-fluoro-6-methoxy-1H-benzimidazol-2-yl)-1H-pyrazol-3-yl]-4-methoxy-benzamide], which IC50 is on record?
A: 0.1 to 0.3 µM

Q: Which IC50 does the source give for CN1CCN(c2ccc(C(=O)Nc3cc(-c4nc5ccccc5[nH]4)n(C)n3)cc2)CC1 [Compound A-212, N-[5-(1H-benzimidazol-2-yl)-1-methyl-pyrazol-3-yl]-4-(4-methyl-piperazin-1-yl)benzamide] here?
A: < 0.1 µM

Q: For O=C(Nc1cc(-c2nc3cc(C(F)(F)F)ccc3[nH]2)[nH]n1)c1ccc(N2CCC(O)CC2)nc1 [Compound A-105, 6-(4-hydroxy-1-piperidyl)-N-[5-[5-(trifluoromethyl)-1H-benzimidazol-2-yl]-1H-pyrazol-3-yl]pyridine-3-carboxamide], which IC50 is on record?
A: > 1 µM

Q: How did the IC50 turn out when O=C(Nc1cc(-c2nc3cccc(F)c3[nH]2)[nH]n1)c1ccc(N2CCC(CO)CC2)nc1 [Compound A-83, N-[5-(7-fluoro-1H-benzimidazol-2-yl)-1H-pyrazol-3-yl]-6-[4-(hydroxymethyl)-1-piperidyl]pyridine-3-carboxamide] was run?
A: < 0.1 µM
